Where “and” joins values, the source holds several entries; their conditions need not be identical. Identical values can stand only once.
Key:
[1] = test system: clinical isolates of MRSA and MSSA, Staphylococcus aureus ATCC 43300 and ATCC 29213; format: cell-based; details: for MIC of the antibiotic alone: before combination with FS-1
[2] = test system: human immunodeficiency virus HIV-1 (LAI); format: cell-based
[3] = test system: human immunodeficiency virus HIV-1 (LAI); format: cell-based; details: 0.01 mg/ml
[4] = test system: influenza virus strain A/FPV/Rostock/34; parameters: species or system chickens; details: in vivo

CCC[C@@H]1C[C@@H](C(=O)N[C@@H]([C@H]2O[C@H](SC)[C@H](O)[C@@H](O)[C@H]2O)[C@@H](C)O)N(C)C1 [lincomycin]
MIC of the antibiotic in combination with FS-1 [1]: 8 µg/mL
MIC of the antibiotic alone [1]: 64 µg/mL

Cc1onc(-c2ccccc2)c1C(=O)N[C@@H]1C(=O)N2[C@@H]1SC(C)(C)[C@@H]2C(=O)O [oxacillin]
MIC of the antibiotic in combination with FS-1 [1]: 64 µg/mL
MIC of the antibiotic alone [1]: 256 µg/mL

Cn1nnnc1SCC1=C(C(=O)O)N2C(=O)[C@@H](NC(=O)[C@H](O)c3ccccc3)[C@H]2SC1 [cefamandole]
MIC of the antibiotic in combination with FS-1 [1]: 8 µg/mL
MIC of the antibiotic alone [1]: 64 µg/mL

Cc1cn([C@H]2C[C@H](N=[N+]=[N-])[C@@H](CO)O2)c(=O)[nH]c1=O [azidothymidine]
Extinction factor (p24) ([2]; 0.01 mg/ml): 0.0446 ± 0.003187
Decrease of p24 protein compared to placebo ([2]; FS-1 0.188 and 0.094 mg/ml, azidothymidine 0.01 mg/ml): 60 times
Decrease of reverse transcriptase content compared with negative control [3]: 5 times
Extinction factor (reverse transcriptase) [3]: 0.5724 ± 0.005464

CC(N)C12CC3CC(CC(C3)C1)C2 (stereo not shown) [Rimantadine]
Number of chickens that died [4]: 10 and 8
Number of survived chickens [4]: 4 and 6
Survival % [4]: 28.6 ± 12.53% and 42.9 ± 13.73%

— US10149890B2 (priority 2010, dated 2018)
